Measured values taken from publication PMC9947975, “Design, Synthesis, and Biological Evaluation Studies of Novel Naphthalene-Chalcone Hybrids As Antimicrobial, Anticandidal, Anticancer, and VEGFR-2 Inhibitors” (ACS Omega, 2023).
Values after ≈ are worked out from the molar mass of the structure shown.

Experiments:
[1] = system: S. aureus (ATCC 29213); assay: Antibacterial activity, MIC50 by resazurin fluorometric measurement; assay type: cell-based, Staphylococcus aureus; conditions: Staphylococcus aureus, ATCC29213, means of triplicate assays
Description: (§1) Obtained compounds (2a–2j) were evaluated for antibacterial activity against Escherichia coli (E. coli) (ATCC 25922), Pseudomonas aeruginosa (P. aeruginosa) (ATCC 27853), […] (E. faecalis) (ATCC 2942), Bacillus subtilis (B. subtilis) (ATCC 6051), Staphylococcus aureus (S. aureus) (ATCC 29213), and Staphylococcus epidermidis (S. epidermidis) (ATCC 12228). MIC50 values were determined via fluorometric measurements, using resazurin solution.[13] Azithromycin was used as a standard drug in the antibacterial activity test.
(§2) The antimicrobial activity of obtained derivatives (2a–2j) was screened on six bacterial and three fungal strains according to the standard procedure of CLSI[20] as described in the previous study.[21] The antibacterial activities of the obtained compounds were screened against B. subtilis (ATCC 6051), E. coli (ATCC 25922), E. faecalis (ATCC 2942), P. aeruginosa (ATCC 27853), S. aureus (ATCC 29213), and S. epidermidis (ATCC 12228). The obtained compounds were evaluated for anticandidal activity against C. albicans (ATCC 24433), C. krusei (ATCC 6258), and C. parapsilopsis (ATCC 22019). For antibacterial activity, azithromycin was utilized as a reference drug, whereas voriconazole and fluconazole were used for anticandidal activity.

[2] = system: E. faecalis (ATCC 2942); assay: as above; assay type: cell-based, Enterococcus faecalis; conditions: for MIC50: Enterococcus faecalis, ATCC2942, means of triplicate assays
Description: as §1, §2

[3] = system: healthy mouse fibroblast cell (NIH3T3); assay: MTT cytotoxicity test on healthy cells; assay type: cell-based; conditions: 24-h treatment, means of quartet assays ± SEM
Description: (§3) The MTT test was performed using 3 different cell lines for calculated IC50 values of obtained compounds. […] For this purpose, the cytotoxic effects of the compounds against the healthy mouse fibroblast cell (NIH3T3) were investigated.
(§4) The 3-(4,5-dimethylthiazol-2-yl)-2,5-diphenyltetrazolium salt reduction method, or MTT assay, is used to measure the metabolic activity of live cells. […] Doxorubicin is used as a therapeutic drug. MTT assays were carried out as previously explained.[19]

[4] = system: C. parapsilopsis (ATCC 22019); assay: Anticandidal activity, MIC50 by resazurin fluorometric measurement; assay type: cell-based, Candida parapsilopsis; conditions: Candida, ATCC22019; means of triplicate assays
Description: (§5) Obtained compounds (2a–2j) were evaluated for anticandidal activity against Candida albicans (C. albicans) (ATCC 24433), Candida krusei (C. krusei) (ATCC 6258), and Candida parapsilopsis (C. parapsilopsis) (ATCC 22019). MIC50 values were determined via fluorometric measurements, using resazurin solution.[13] Voriconazole and fluconazole were used as a standard drug in the anticandidal activity test. […] In general, it is seen that the 2-methoxyethyl substituent increases the anticandidal activity.
as §2

[5] = system: S. epidermidis (ATCC 12228); assay: Antibacterial activity, MIC50 by resazurin fluorometric measurement; assay type: cell-based, Staphylococcus epidermidis; conditions: Staphylococcus epidermidis, ATCC12228, means of triplicate assays; read-out: MIC50 S. epidermis
Description: as §1, §2

[6] = system: A549 cell line; assay: MTT cytotoxicity test; assay type: cell-based; conditions: Homo sapiens, A549, 24 h, MTT, 24-h treatment, means of quartet assays ± SEM
Description: as §3, §4

[7] = system: HepG2 cell line; assay: MTT cytotoxicity test; assay type: cell-based; conditions: Homo sapiens, 24-h treatment, means of quartet assays ± SEM
Description: as §3, §4

[8] = system: C. albicans (ATCC 24433); assay: Anticandidal activity, MIC50 by resazurin fluorometric measurement; assay type: cell-based, Candida albicans; conditions: Candida albicans, ATCC24433, means of triplicate assays
Description: as §5, §2

[9] = system: C. krusei (ATCC 6258); assay: as above; assay type: cell-based, Candida krusei; conditions: Pichia kudriavzevii, ATCC6258, means of triplicate assays
Description: as §5, §2

[10] = system: E. coli (ATCC 25922); assay: Antibacterial activity, MIC50 by resazurin fluorometric measurement; assay type: cell-based; conditions: Escherichia coli, ATCC25922; means of triplicate assays
Description: as §1, §2

[11] = system: P. aeruginosa (ATCC 27853); assay: as above; assay type: cell-based; conditions: Pseudomonas aeruginosa, ATCC27853; means of triplicate assays
Description: as §1, §2

[12] = system: B. subtilis (ATCC 6051); assay: as above; assay type: cell-based; conditions: Bacillus subtilis, ATCC6051; means of triplicate assays
Description: as §1, §2

Structure (SMILES)	MIC50 [1]	MIC50 [2]	MIC50 E. faecalis ([2]; means of triplicate assays)	IC50 [3]	MIC50 [4]	MIC50 [5]	IC50 [6]	IC50 [7]	MIC50 [8]	MIC50 [9]	MIC50 [10]	MIC50 [11]	MIC50 [12]	melting point
C=CCN1CCN(c2ccc(C(=O)C=Cc3cccc4ccccc34)cc2)CC1 [2d, 1-(4-(4-Allylpiperazin-1-yl)phenyl)-3-(naphthalen-1-yl)prop-2-en-1-one]	> 100 µg/mL	15.6 µg/mL (≈ 40.8 µM)	15.7 µg/mL (≈ 41 µM)	19.8 ± 1.31 µM	> 100 µg/mL	31.3 µg/mL (≈ 81.8 µM)	71.1 ± 3.08 µM	45.1 ± 8.12 µM	31.3 µg/mL (≈ 81.8 µM)	62.5 µg/mL (≈ 163 µM)	> 100 µg/mL	62.5 µg/mL (≈ 163 µM)	> 100 µg/mL	120.2 to 121.9 °C
CC(C)N1CCN(c2ccc(C(=O)C=Cc3ccc4ccccc4c3)cc2)CC1 [2h, 1-(4-(4-Isopropylpiperazin-1-yl)phenyl)-3-(naphthalen-2-yl)prop-2-en-1-one]	> 100 µg/mL	31.3 µg/mL (≈ 81.4 µM)		66.5 ± 0.98 µM	> 100 µg/mL	62.5 µg/mL (≈ 163 µM)	41.3 ± 1.5 µM	46.3 ± 1.25 µM	31.3 µg/mL (≈ 81.4 µM)	> 100 µg/mL	> 100 µg/mL	> 100 µg/mL	> 100 µg/mL	213.3 to 214.9 °C
OC(Cn1cncn1)(Cn1cncn1)c1ccc(F)cc1F [SD3, Fluconazole, reference compound]					3.9 µg/mL (≈ 12.7 µM)				7.81 µg/mL (≈ 25.5 µM)	7.81 µg/mL (≈ 25.5 µM)				
C=CCN1CCN(c2ccc(C(=O)C=Cc3ccc4ccccc4c3)cc2)CC1 [2i, 1-(4-(4-Allylpiperazin-1-yl)phenyl)-3-(naphthalen-2-yl)prop-2-en-1-one]	> 100 µg/mL	31.3 µg/mL (≈ 81.8 µM)		> 100 µM	> 100 µg/mL	31.3 µg/mL (≈ 81.8 µM)	21.4 ± 2.56 µM	97.1 ± 4.94 µM	31.3 µg/mL (≈ 81.8 µM)	> 100 µg/mL	> 100 µg/mL	> 100 µg/mL	> 100 µg/mL	186.9 to 188.8 °C
CN1CCN(c2ccc(C(=O)C=Cc3cccc4ccccc34)cc2)CC1 [2a, 1-(4-(4-Methylpiperazin-1-yl)phenyl)-3-(naphthalen-1-yl)prop-2-en-1-one]	> 100 µg/mL	31.3 µg/mL (≈ 87.8 µM)		61.9 ± 1.42 µM	62.5 µg/mL (≈ 175 µM)	62.5 µg/mL (≈ 175 µM)	> 100 µM	> 100 µM	31.3 µg/mL (≈ 87.8 µM)	62.5 µg/mL (≈ 175 µM)	> 100 µg/mL	62.5 µg/mL (≈ 175 µM)	> 100 µg/mL	150.2 to 152.1 °C
CC[C@H]1OC(=O)[C@H](C)[C@@H](O[C@H]2C[C@@](C)(OC)[C@@H](O)[C@H](C)O2)[C@H](C)[C@@H](O[C@@H]2O[C@H](C)C[C@H](N(C)C)[C@H]2O)[C@](C)(O)C[C@@H](C)CN(C)[C@H](C)[C@@H](O)[C@]1(C)O [SD1, Azithromycin, reference compound]	< 0.97 µg/mL	< 0.97 µg/mL				< 0.97 µg/mL					< 0.97 µg/mL	< 0.97 µg/mL	< 0.97 µg/mL	
CC(C)N1CCN(c2ccc(C(=O)C=Cc3cccc4ccccc34)cc2)CC1 [2c, 1-(4-(4-Isopropylpiperazin-1-yl)phenyl)-3-(naphthalen-1-yl)prop-2-en-1-one]	62.5 µg/mL (≈ 163 µM)	31.3 µg/mL (≈ 81.4 µM)		> 100 µM	> 100 µg/mL	31.3 µg/mL (≈ 81.4 µM)	34.3 ± 5.56 µM	96.1 ± 5.46 µM	15.6 µg/mL (≈ 40.6 µM)	62.5 µg/mL (≈ 163 µM)	> 100 µg/mL	62.5 µg/mL (≈ 163 µM)	> 100 µg/mL	146.8 to 147.5 °C
